Patent US8334261B2, “Osteopenia animal model” (Oriental Yeast Co., Ltd., priority 2006, dated 2012)

Experiments:
[1] = system: GST-RANKL-administered 7-week-old female C57BL/6 mice; test: Drug evaluation with bisphosphonate (risedronate) in GST-RANKL mice; type: in vivo, mouse; details: for femur bone density decrease vs PBS group: RANKL alone
Method: Risedronate was separately administered via a subcutaneous route to groups of 7-week-old female C57BL/6 mice at doses of 3, 10, and 30 μg/kg every 24 hours from the day before GST-RANKL administration to the end of the experimentation. The femur and serum were collected from each mouse 1.5 hours after the 3rd administration of GST-RANKL. Measurement of TRAP-5b, calcium (Ca), and alkaline phosphatase (ALP) was carried out. Each femur was subjected to bone density measurement and image analysis with the use of pQCT.

[2] = system: 7-week-old female C57BL/6N mice; test: GST-RANKL administration test (57 and 426 nmol); type: in vivo, mouse
Method: GST-RANKL was intraperitoneally administered 3 times to groups of 7-week-old female C57BL/6N mice (10 individuals each) at doses of 57 nmol (low dose) and 426 nmol (high dose) every 24 hours. Exsanguination was performed 1.5 hours after the 3rd administration. A group to which PBS was administered in the same manner as above was used as a control group for comparison.
The exsanguinated blood was subjected to measurement of serum bone resorption parameters (calcium, CTx, TRAP-5b) and serum osteogenesis parameters (osteocalcin and alkaline phosphatase (ALP)). Calcium was measured by the OCPC method (WAKO, 272-21801). CTx (Nordic Bioscience Diagnostics), TRAP-5b (IDS Ltd, SB-TR103), and osteocalcin (Biomedical Technologies Inc.) were measured by ELISA. ALP was measured by the Bessey-Lowry method (WAKO, 274-04401).
The following organs were collected from each exsanguinated mouse: the femur, the tibia, the cerebrum, the lungs, the heart, the liver, the thymus, the spleen, the kidneys, and the skin. Naturally occurring lesions were observed by HE staining of the cerebrum, the lungs, the heart, the liver, the thymus, the spleen, the kidneys, and the skin.
Regarding the femur, the cancellous bone was subjected to bone density measurement with the use of pQCT at points 0.6 mm, 0.8 mm, and 1.0 mm from the distal growth plate on the proximal side at the distal end of the femur. Regarding the tibia, tibia sections were prepared for bone morphology measurement. Measurement values were compared with those for a control group by the Dunnett method for testing.

[3] = system: 7-week-old female Fischer rats; test: Examination with Fischer rats; type: in vivo, rat
Method: GST-RANKL was intraperitoneally administered 3 times to 7-week-old female Fischer rats at 1 mg/kg every 24 hours. The serum and femur were collected from each mouse 1.5 hours after the 3rd administration, followed by comparison with the PBS administration group. The serum of each mouse was subjected to measurement (with the use of an SB-TR102 kit, IDS Ltd.) of the Ca and TRAP-5b concentrations serving as bone resorption markers and the ALP concentration serving as an osteogenesis marker. Each femur was subjected to bone density measurement with pQCT and image analysis with micro CT.

female C57BL/6N mice = test: Producing OVX mice in a short period of time (GST-RANKL plus ovariectomy); type: in vivo, mouse
Method: 7-week-old female C57BL/6N mice were reared for 25 days. Then, GST-RANKL was intraperitoneally administered twice thereto at 1 mg/kg every 24 hours. Ovariectomy was carried out 24 hours after the 2nd administration. Further, the femur, tibia, and serum were collected from each mouse 24 hours after ovariectomy. The obtained samples were compared with the samples obtained from a group that was reared for 4 weeks after ovariectomy. In addition, PBS was administered to control groups for comparison with GST-RANKL administration groups. The PBS administration groups were subjected to sham operation (Sham) for comparison with the groups subjected to ovariectomy.
Regarding bone metabolism markers, TRAP-5b, calcium (Ca), and alkaline phosphatase (ALP) in the serum were measured. Each femur was subjected to bone density measurement with pQCT and image analysis with micro CT. After the initiation of rearing, the date of implementation of OVX or sham operation was expressed as “day X.”

[4] = system: GST-RANKL-administered 7-week-old female C57BL/6N mice; test: Evaluation of an osteoporosis therapeutic agent (risedronate) with GST-RANKL-administered mice; type: in vivo, mouse
Method: GST-RANKL (426 nmol) was intraperitoneally administered 3 times to groups of 7-week-old female C57BL/6N mice (5 to 6 individuals each) every 24 hours. An osteoporosis therapeutic agent (risedronate) was subcutaneously administered at 0.01 mg/kg every 24 hours from 3 days before GST-RANKL administration. Administration of the agent was continued to the end of the experimentation every 24 hours. The serum, femur, and tibia were collected from each mouse 1.5 hours after the 3rd administration of GST-RANKL. Bone resorption parameters (calcium, CTx, and TRAP-5b) and osteogenesis parameters (osteocalcin and ALP) in the serum were measured. The femur bone density was determined with the use of pQCT and micro CT. Measurement values were compared with those for a control group by the Dunnett method for testing.

[5] = system: 12-week-old male and female C57BL/6N mice; test: GST-RANKL administration to 12-week-old mice; type: in vivo, mouse
Method: GST-RANKL was intraperitoneally administered 3 times to 12-week-old male and female C57BL/6N mice at 1 mg/kg every 24 hours. The serum and femur were collected from each mouse 1.5 hours after the 3rd administration. The serum collected from each mouse was subjected to measurement of serum bone resorption markers (Ca and TRAP-5b) and an osteogenesis marker (ALP). Each femur was subjected to bone density measurement by dual energy X-ray absorptiometry (DEXA) and image analysis with micro CT.

[6] = high dose 426 nmol i.p. 3 times
[7] = GST-RANKL 426 nmol i.p. 3 times
[8] = 12-week-old male, no significant difference

GST-RANKL: fused protein of Glutathione S-transferase with human RANKL residues 140-317, expressed in Escherichia coli, 47.0 kDa
serum Ca concentration ([1]; GST-RANKL 3 times): did not obviously vary
serum TRAP-5b concentration, fold as high ([1]; RANKL administration): approximately 2 fold
femur bone density decrease vs PBS group ([1]; 0.6 mm): 27%
femur bone density decrease vs PBS group ([1]; 0.8 mm): 35%
femur bone density decrease vs PBS group ([1]; 1.0 mm): 35%
abnormal findings and lesions in organs (HE staining) ([2]; 57 and 426 nmol, cerebrum, lungs, heart, liver, thymus, spleen, kidneys, skin): not observed
femur bone morphology with micro CT ([2]; high dose 426 nmol): significant bone decreases
serum ALP concentration ([2]; high dose 426 nmol): did not vary
serum osteocalcin concentration ([2]; high dose 426 nmol): did not vary
tibial osteoblast surface area ([2]; high dose 426 nmol): significant osteoblast surface area increase
tibial osteoclast number ([2]; high dose 426 nmol): increased
tibial trabecular number decrease ([2]; high dose 426 nmol): approximately 50%
tibial unit bone mass decrease ([2]; high dose 426 nmol): approximately 50%
serum CTx concentration, fold as high as control [2, 6]: approximately 1.5 fold
serum TRAP-5b concentration, fold as high as control [2, 6]: approximately 1.5 fold
serum Ca concentration, fold as high as control ([2]; high dose 426 nmol i.p. 3 times every 24 hours, 1.5 hours after 3rd administration): approximately 1.4 fold
femur bone density decrease (pQCT) ([2]; high dose 426 nmol, 0.6 mm from distal growth plate): 10%
femur bone density decrease (pQCT) ([2]; high dose 426 nmol, 0.8 mm): 23%
femur bone density decrease (pQCT) ([2]; high dose 426 nmol, 1.0 mm): 20%
femur bone density (pQCT) vs control ([2]; low dose 57 nmol): no significant difference
serum ALP concentration ([2]; low dose 57 nmol): did not vary
serum osteocalcin concentration ([2]; low dose 57 nmol): did not vary
tibial trabecular number ([2]; low dose 57 nmol): no decrease was observed
tibial unit bone mass ([2]; low dose 57 nmol): no decrease was observed
serum ALP concentration vs control ([3]; 1 mg/kg i.p. 3 times): no changes
serum Ca concentration vs control ([3]; 1 mg/kg i.p. 3 times): no changes
serum TRAP-5b concentration vs control ([3]; 1 mg/kg i.p. 3 times): no changes
femur bone density decrease ([3]; 3 mm from the distal growth plate): approximately 20%
serum ALP concentration increase vs PBS+Sham (day 27) group (female C57BL/6N mice; GST-RANKL administration OVX (day 27) group): approximately 40%
femur bone density decrease vs PBS+Sham (day 27) (female C57BL/6N mice; GST-RANKL+OVX (day 27), 0.6 mm): approximately 4%
femur bone density decrease vs PBS+Sham (day 27) (female C57BL/6N mice; GST-RANKL+OVX (day 27), 0.8 mm): approximately 13%
femur bone density decrease vs PBS+Sham (day 27) (female C57BL/6N mice; GST-RANKL+OVX (day 27), 1.0 mm): approximately 15%
femur bone density decrease vs PBS+Sham (day 27) (female C57BL/6N mice; GST-RANKL+Sham (day 27), 0.6 mm): approximately 7%
femur bone density decrease vs PBS+Sham (day 27) (female C57BL/6N mice; GST-RANKL+Sham (day 27), 0.8 mm): approximately 14%
femur bone density decrease vs PBS+Sham (day 27) (female C57BL/6N mice; GST-RANKL+Sham (day 27), 1.0 mm): approximately 16%
serum TRAP-5b concentration, fold as high as PBS+Sham (day 27) group (female C57BL/6N mice; every GST-RANKL administration group, 1 mg/kg i.p. twice, no significant difference): approximately 1.8 fold
serum alkaline phosphatase concentration vs control ([4]; GST-RANKL 426 nmol): did not change
serum osteocalcin concentration vs control ([4]; GST-RANKL 426 nmol): did not change
serum CTx concentration, fold as high as control [4, 7]: approximately 1.4 fold
serum TRAP-5b concentration, fold as high as control [4, 7]: approximately 1.5 fold
femur bone density decrease vs control ([4]; GST-RANKL 426 nmol, at 0.6 mm, 0.8 mm and 1.0 mm): approximately 20%
total bone density decrease (DEXA) vs control ([5]; 12-week-old female): 6%
serum ALP concentration vs PBS group ([5]; 12-week-old female, no significant difference): tended to increase
serum TRAP-5b concentration vs PBS group ([5]; 12-week-old female, p<0.01): significantly increased
serum Ca concentration vs PBS group ([5]; 12-week-old female, p<0.05): significantly increased
total bone density decrease (DEXA) vs control ([5]; 12-week-old male): 8%
serum TRAP-5b concentration vs PBS group ([5]; 12-week-old male, 1 mg/kg i.p. 3 times, p<0.05): significantly increased
serum ALP concentration vs PBS group [5, 8]: tended to increase
serum Ca concentration vs PBS group [5, 8]: tended to increase
